Data published in patent US4772691A, “Chemically cleavable nucleotides” (The Medical College of Wisconsin, Inc., priority 1985, dated 1988).

Experiments:
[1] = test system: avidin; settings: compared with avidin-biotin; cited from earlier work
[2] = biological target: E. coli DNA polymerase I (Escherichia coli, UniProt P00582); assay: nick-translation reaction, incorporation of [32P]dCTP into 145-bp DNA; format: biochemical; settings: for rate of nick-translation reaction relative to TTP: 20 μM nucleotide, relative to equal concentration of TTP
E. coli DNA polymerase I, sequence (P00582 whole entry, the tested form may be a part): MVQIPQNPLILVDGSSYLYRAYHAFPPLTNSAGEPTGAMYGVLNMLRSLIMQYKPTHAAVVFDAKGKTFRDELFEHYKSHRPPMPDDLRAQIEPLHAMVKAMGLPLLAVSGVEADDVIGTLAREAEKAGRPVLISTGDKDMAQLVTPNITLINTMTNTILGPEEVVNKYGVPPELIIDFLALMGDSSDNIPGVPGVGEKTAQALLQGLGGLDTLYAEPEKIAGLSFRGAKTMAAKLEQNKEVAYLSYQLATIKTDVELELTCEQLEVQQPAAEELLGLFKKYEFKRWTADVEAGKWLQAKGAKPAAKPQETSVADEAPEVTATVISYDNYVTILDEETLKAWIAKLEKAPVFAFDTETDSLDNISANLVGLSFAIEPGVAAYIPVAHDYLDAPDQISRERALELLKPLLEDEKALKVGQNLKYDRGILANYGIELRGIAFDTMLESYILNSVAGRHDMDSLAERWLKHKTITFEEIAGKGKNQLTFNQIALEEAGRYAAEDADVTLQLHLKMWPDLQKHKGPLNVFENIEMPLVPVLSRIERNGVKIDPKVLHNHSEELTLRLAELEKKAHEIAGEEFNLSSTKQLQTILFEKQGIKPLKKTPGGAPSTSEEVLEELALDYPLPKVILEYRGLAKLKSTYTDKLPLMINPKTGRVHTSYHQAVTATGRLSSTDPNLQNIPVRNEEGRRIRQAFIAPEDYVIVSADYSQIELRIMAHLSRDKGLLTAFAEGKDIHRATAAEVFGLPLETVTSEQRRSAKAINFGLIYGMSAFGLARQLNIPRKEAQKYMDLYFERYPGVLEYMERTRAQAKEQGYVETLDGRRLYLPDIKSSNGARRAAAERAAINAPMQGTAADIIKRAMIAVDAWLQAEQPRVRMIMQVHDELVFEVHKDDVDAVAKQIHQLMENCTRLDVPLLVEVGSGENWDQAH
Method: Nick-Translation Reactions. Nucleosome length DNA fragments [145 base pairs (bp)]were purified from monomer nucleosomes prepared by micrococcal nuclease digestion of chicken erythrocyte nuclei followed by fractionation on an agarose A-5m column (2). Four microgram aliquots of 145-bp DNA fragments in 0.1 ml of 50 mM Tris-HCl, pH 7.5/5 mM MgCl2 /50 μg of bovine serum albumin per ml were nicktranslated (3) in the presence of 20 μM dATP and dGTP, 20 μM [^32 P]dCTP (2-5 μCi/nmol; 1 Ci =37 GBq), and either dTTP, Bio-4-dUTP, or Bio-SS-dUTP as indicated. 2-Mercaptoethanol was eliminated from the nick-translation buffer to preserve the Bio-SS-dUTP. DNase I (0.01 ng per 0.1 ml of reaction mixture) was added to the reaction, which was then incubated for 5 min at 15° C. prior to the addition of E. coli DNA polymerase I (4 units per 0.1 ml of reaction mixture).
Bio-SS-dUTP Is a Substrate for E. coli DNA Polymerase. To determine whether Bio-SS-dUTP could serve as a substrate for E. coli DNA polymerase I, its incorporation into DNA in a nick-translation reaction was measured. The incorporation of [^32 P ]dCTP into purified nucleosome-length DNA fragments (145 bp) in the presence of 20 μM dATP, dGTP, dCTP, and either the normal nucleotide, TTP, or one of three biotinylated nucleotide analogs was measured. Bio-SS-dUTP was capable of supporting the nick-translation reaction at 35%-40% the rate observed with an equal concentration of TTP. […] If no TTP is present with the biotinylated nucleotides in the nick-translation reaction, the newly synthesized DNA is very heavily biotinylated. To reduce this level of modification, the nick-translation reactions can be performed in the presence of μM/10TTP/10 μM Bio-SS-dUTP.

[3] = HPLC of Bio-SS-dUTP in presence of 2-mercaptoethanol (disulfide cleavage); format: physicochemical; settings: 5 mM 2-mercaptoethanol immediately before HPLC
Method: It was not necessary to further purify the AA-dUTP by HPLC at this stage in the synthesis. Instead, 2.0 μmol of AA-dUTP in 200 μl of 0.1 M sodium borate (pH 8.5) was added directly to 2.0 μmol of sulfo-NHS-SS-biotin. The reaction was allowed to proceed at room temperature for 1 to 2 hr. The resulting Bio-SS-dUTP was purified by ion-pair reversed-phase HPLC using a Bio-Sil ODS-5S column (250×4 mm; Bio-Rad). Aliquots of the reaction (100 μl) were adjusted to 50 mM Et3 NHCO3 (pH 7.5) and 10% acetonitrile, diluted to 500 μl with the same buffer, and applied to the column at a flow rate of 0.5 ml/min (1600 psi). Bio-SS-dUTP was eluted isocratically with 50 mM Et3 NHCO3 (pH 7.5) and 10% acetonitrile. Column fractions containing Bio-SS-dUTP were pooled, rotary evaporated, resuspended in 10 mM Tris HCl (pH 7.5); and stored at -80° C. From 2.0 μmol of AA-dUTP, 1.0-1.6 μmol of Bio-SS-dUTP can be obtained by this procedure.
An identical aliquot of the Bio-SS-dUTP reaction was supplemented with 2-mercaptoethanol to a final concentration of 5 mM immediately prior to its application and chromatography on HPLC. […] Instead, there was a corresponding increase in the material eluting from the column with the solvent breakthrough (3.3 min). […]

SMILES | strength of avidin-iminobiotin interaction [1] | rate of nick-translation reaction relative to TTP [2] | rate of nick-translation reaction in mixture with TTP ([2]; 10 μM TTP/10 μM Bio-SS-dUTP versus 20 μM TTP alone) | residues incorporated per nucleosome-length fragment ([2]; nick-translated with equal concentrations of TTP and Bio-SS-dUTP) | substrate for E. coli DNA polymerase ([2]; nick-translation) | intact compound after 2-mercaptoethanol (HPLC) [3]
N=C1N[C@H]2[C@H](CS[C@H]2CCCCC(=O)O)N1 [2-iminobiotin] | not nearly as strong as that of avidin-biotin |  |  |  |  | 
O=C(CCCC[C@@H]1SC[C@@H]2NC(=O)N[C@@H]21)NCC=Cc1cn([C@H]2C[C@H](O)[C@@H](COP(=O)(O)OP(=O)(O)OP(=O)(O)O)O2)c(=O)[nH]c1=O [Bio-4-dUTP, reference compound] |  | 60% |  |  |  | 
O=C(CCSSCCNC(=O)CCCC[C@@H]1SC[C@@H]2NC(=O)N[C@@H]21)NCC=Cc1cn([C@H]2C[C@H](O)[C@@H](COP(=O)(O)OP(=O)(O)OP(=O)(O)O)O2)c(=O)[nH]c1=O [Bio-SS-dUTP] |  | 35%-40% | only slightly slower | 2-5 residues per nucleosome-length fragment | good substrate | no UV-absorbing material eluted from the column with the retention time expected for intact Bio-SS-dUTP
